Data set [1] concerns SMMC-7721. Kind of data set: Antiproliferative activity against human SMMC-7721 cells assessed as inhibition of cell growth incubated for 48 hrs by CCK-8 reagent based spectrophotometric analysis. Type of data set: functional. The settings on record: SMMC-7721, 48 h.
In data set [2] the test system is SW-620. Briefly: Antiproliferative activity against human SW620 cells assessed as inhibition of cell growth incubated for 48 hrs by CCK-8 reagent based spectrophotometric analysis. Type of data set: functional. The settings on record: SW-620, 48 h.
Data set [3] concerns SMMC-7721. Briefly: Antitumor activity against human SMMC-7721 cells xenografted in BALB/c mouse assessed as reduction in tumor weight at 10 mg/kg,ip administrated daily for 3 weeks (reference value: 0.573 +/- 0.137 g). Type of data set: functional.
Data set [4] has as its system SMMC-7721. Briefly: Antitumor activity against human SMMC-7721 cells xenografted in BALB/c mouse assessed as inhibition of tumor growth at 10 mg/kg,ip administrated daily for 3 weeks relative to control. Type of data set: functional. Details: scale not given: the % may be the effect or the level left.
A short description of data set [5]: Aqueous solubility of the compound in […] by HPLC analysis. Type of data set: physicochemical.
The test system of data set [6] is SMMC-7721. Kind of data set: Induction of apoptosis in human SMMC-7721 cells assessed as viable cells at 10 uM incubated for 24 hrs by Annexin V-FITC and propidium iodide staining based flow cytometric analysis (reference value: 99 %). The class given is functional. As to conditions: read-out: Activity.
The test system of data set [7] is SMMC-7721. Kind of data set: Induction of apoptosis in human SMMC-7721 cells assessed as viable cells at 20 uM incubated for 24 hrs by Annexin V-FITC and propidium iodide staining based flow cytometric analysis (reference value: 99 %). Type of data set: functional. The settings on record: read-out: Activity.
In data set [8] the test system is SMMC-7721. Kind of data set: Induction of apoptosis in human SMMC-7721 cells assessed as early apoptotic cells at 5 uM incubated for 24 hrs by Annexin V-FITC and propidium iodide staining based flow cytometric analysis (reference value: 0.28 %). The class given is functional.
In data set [9] the test system is SMMC-7721. Kind of data set: Induction of apoptosis in human SMMC-7721 cells assessed as necrotic cells at 10 uM incubated for 24 hrs by Annexin V-FITC and propidium iodide staining based flow cytometric analysis (reference value: 0.61 %). Type of data set: functional.
Data set [10] deals with SMMC-7721. Briefly: Induction of apoptosis in human SMMC-7721 cells assessed as late apoptotic cells at 5 uM incubated for 24 hrs by Annexin V-FITC and propidium iodide staining based flow cytometric analysis (reference value: 0.14 %). Type of data set: functional.
The test system of data set [11] is SMMC-7721. Briefly: Induction of apoptosis in human SMMC-7721 cells assessed as viable cells at 15 uM incubated for 24 hrs in presence of Nec1 by Annexin V-FITC and propidium iodide staining based flow cytometric analysis (reference value: 99.2 %). Type of data set: functional. As to conditions: read-out: Activity.
The subject of data set [12] is SMMC-7721. Kind of data set: Induction of apoptosis in human SMMC-7721 cells assessed as early apoptotic cells at 15 uM incubated for 24 hrs by Annexin V-FITC and propidium iodide staining based flow cytometric analysis (reference value: 0.07 %). Type of data set: functional.
Data set [13] deals with SMMC-7721. Kind of data set: Induction of apoptosis in human SMMC-7721 cells assessed as late apoptotic cells at 15 uM incubated for 24 hrs in presence of 3-MA by Annexin V-FITC and propidium iodide staining based flow cytometric analysis (reference value: 0.09 %). Type of data set: functional.
Data set [14] relates to SMMC-7721. Briefly: Induction of apoptosis in human SMMC-7721 cells assessed as necrotic cells at 15 uM incubated for 24 hrs by Annexin V-FITC and propidium iodide staining based flow cytometric analysis (reference value: 0.65 %). The class given is functional.
The subject of data set [15] is SMMC-7721. Kind of data set: Induction of apoptosis in human SMMC-7721 cells assessed as upregulation of Bax expression incubated for 24 hrs by Western blotting analysis. Type of data set: functional, cell-based.
The test system of data set [16] is SMMC-7721. Briefly: Induction of apoptosis in human SMMC-7721 cells assessed as downregulation of BCL-2 expression at 15 uM incubated for 24 hrs by Western blotting analysis. The class given is functional, cell-based.
In data set [17] the test system is SMMC-7721. Briefly: Induction of apoptosis in human SMMC-7721 cells assessed as upregulation of Bax/Bcl-2 ratio incubated for 24 hrs by Western blotting analysis. Type of data set: functional, cell-based.
The subject of data set [18] is SMMC-7721. Briefly: Induction of apoptosis in human SMMC-7721 cells assessed as upregulation of Bax/Bcl-2 ratio at 20 uM incubated for 24 hrs by Western blotting analysis. Type of data set: functional, cell-based.
Data set [19] has as its system SMMC-7721. Kind of data set: Induction of apoptosis in human SMMC-7721 cells assessed as upregulation of LC3 expression incubated for 24 hrs by Western blotting analysis. Type of data set: functional, cell-based.
For data set [20], the system named is SMMC-7721. Kind of data set: Antitumor activity against human GFP-stained SMMC-7721 cells inoculated in zebrafish larvae assessed as reduction in tumor growth at 5 to 20 uM incubated for 48 hrs by confocal laser scanning microscopy. As to conditions: dose 5-20 µM. The class given is functional, cell-based.
Data set [21] can be described thus: Toxicity in BALB/c mouse xenografted with human SMMC-7721 cells assessed as change in body weight at 10 mg/kg,ip administrated daily for 3 weeks. The class given is organism-based. The settings on record: in vivo, 504 h.
Data set [22] has as its system SMMC-7721. Briefly: Antitumor activity against human SMMC-7721 cells xenografted in BALB/c mouse assessed as reduction in tumor growth at 10 mg/kg,ip administrated for 3 weeks. Type of data set: functional, organism-based.
The test system of data set [23] is SMMC-7721. Kind of data set: Antitumor activity against human SMMC-7721 cells xenografted in BALB/c mouse assessed as reduction in tumor weight at 10 mg/kg,ip administrated for 3 weeks. Type of data set: functional, organism-based.
Data set [24] is described as follows: Inhibition of PI3K/AKT/mTOR signalling pathway in human SMMC-7721 cells at 10 uM incubated for 24 hrs by transcriptome analysis. The class given is cell-based.
The nature of data set [25]: Toxicity in Zebrafish embryo assessed as reduction in survival rate at >= 30 uM incubated for 48 hrs by microscopic analysis relative to control. Details: species or system Danio rerio. As to conditions: zebrafish embryos.
In data set [26] the test system is SMMC-7721. Briefly: Antitumor activity against human GFP-stained SMMC-7721 cells inoculated in zebrafish larvae assessed as reduction in tumor growth by measuring survival rate at 10 uM incubated for 48 hrs by confocal laser scanning microscopy. The class given is functional.
Data set [27] has as its system SMMC-7721. Kind of data set: Antitumor activity against human GFP-stained SMMC-7721 cells inoculated in zebrafish larvae assessed as reduction in tumor growth at < 10 uM incubated for 48 hrs by confocal laser scanning microscopy. Type of data set: functional, cell-based.

Values after ≈ are worked out from the molar mass of the structure shown. Active and inactive are the calls of the source. No cut-off for these calls is given here.

For `C=C(C)[C@@H]1CC[C@]2(C(=O)OC)CC[C@]3(C)[C@H](CC[C@@H]4[C@@]5(C)C[C@@H](Cc6cn([C@H]7C[C@H](n8cc(C)c(O)nc8=O)O[C@@H]7CO)nn6)C(=O)C(C)(C)[C@@H]5CC[C@]43C)[C@@H]12`, the figures for the half-maximal inhibitory concentration (IC50) in data set [1] and in data set [2] were 5.02 µM and 4.61 µM, respectively. For the same compound, the Activity was determined as 0.275 g in [3]; 52% in [4]; 0.24% in data set [8]; 1.48% in data set [9]; 0.77% in data set [10]; 0.04% in [12]. Further, the Activity was 6.4% in [13]; 16.6% in data set [14]; “Dose-Dependent Effect” in data set [15]; “Dose-Dependent Effect” in data set [17]; “Dose-Dependent Effect” in [19]; “Non-Toxic” in [21]. The solubility in data set [5] came out at 2.56 µM (≈ 1.98 µg/mL). Further, in data set [6], the viability at 10 µM was determined as 91.7%. Besides, in data set [7], the viability at 20 µM worked out at 58%. The viability at 15 µM in data set [11] turned out to be 83.6%. Moreover, the outcome in [16], in [18], in data set [20], in [22] and in data set [23] was Active. In addition, the inhibition result in data set [24] was “Active”.

Consider `C=C(C)[C@@H]1CC[C@]2(C(=O)OC)CC[C@]3(C)[C@H](CC[C@@H]4[C@@]5(C)C[C@@H](Cc6cn([C@]7(CO)O[C@@H](n8ccc(O)nc8=O)[C@@H](F)[C@@H]7O)nn6)C(=O)C(C)(C)[C@@H]5CC[C@]43C)[C@@H]12`, for which the IC50 was found to be 7.73 µM in data set [1] and 10.9 µM in data set [2]. Further, in [6], the viability at 10 µM was 96.2%. Further, the viability at 20 µM in data set [7] was 62.3%. In addition, the Activity in [8] stood at 0.13%; in data set [9] it was 2.69%; in data set [10], 0.16%; in data set [12], 0.06%; in data set [13], 2.54%; in [14], 15.7%. The Activity in [26] is 85%. Moreover, in data set [11], the viability at 15 µM was found to be 87.4%. In addition, the survival at 48 h, 30 µM in [25] was less than 25%. In addition, the result in data set [27] was inactive.

Source of the values: ChEMBL document CHEMBL5608177, “Antitumor activity and transcriptome sequencing (RNA-seq) analyses of hepatocellular carcinoma cells in response to exposure triterpene-nucleoside conjugates” (Eur J Med Chem, 2024).
